Laboratory results: patent publication EP1627887A2, “Mouce trace amine associated receptors” (F.HOFFMANN-LA ROCHE AG, priority 2004, dated 2006)
Read-outs that look alike come from different tables or passages of the source.

Experiments:
Mouse TAAR 1 [1] = assay: cAMP Biotrak EIA functional assay in HEK293 cells stably expressing the receptor
Experimental: (§1) The amount of cAMP produced by HEK293 cells stably expressing the indicated receptor in response to stimulation by each of the listed compounds was measured using the cAMP Biotrak EIA System (Amersham). Shown are the EC50 values in µM (means of at least three independent experiments; EC50 values are calculated from experiments carried out with 12 concentrations each in duplicates evenly distributed in the range of 30 µM - 0.1 nM). The maximal response is represented as percentage of the maximal cAMP levels induced by p-TYR.
(§2) cAMP assay: cAMP was assayed using the cAMP Biotrak Enzymeimmunoassay (EIA) System from Amersham as described in the product manual, following the so-called Non-acetylation EIA procdure.
(§3) In the protocol the following minor modifications were introduced: After stimulation of HEK cells in 96 well plates the reaction was stopped by applying equal volume of pre cooled (-20°C) ethanol. Lysis of cells was not achieved by applying the lysis buffer supplied with the kit, but with transferring the 96 well plates to -80°C for a minimum of 6 hrs (up to several days). Thereafter the contents of the 96 well plates was dried at 50°C over night, and the material remaining in the 96 well plates was resuspended in 200 µl of the assay buffer (the buffer used for resuspending all reagents of the kit). The resuspension were assayed in serial dilutions in assay buffer.

Mouse TAAR 1 [2] = system: Mouse TAAR 1
Experimental: as §1, §2, §3

CNCCc1ccccc1 [N-methyl-β-PEA]
Max (Mouse TAAR 1 [1]; hek293 cells): 100%

NCCc1ccccc1 [β-PEA, β-phenylethylamine]
Max (Mouse TAAR 1 [1]; hek293 cells): 100%

NCCc1c[nH]c2ccccc12 [TRY, tryptamine]
Max (Mouse TAAR 1 [1]; hek293 cells): 100%

CNCCc1ccc(O)cc1 [N-methyl-p-tyramine]
EC50 (Mouse TAAR 1 [1]): 1020 ± 390 nM | Max (Mouse TAAR 1 [1]; hek293 cells): 100%

NCCc1ccc(O)cc1 [p-TYR, p-tyramine]
Max (Mouse TAAR 1 [1]; maximal response as percentage of the maximal cAMP levels induced by p-TYR, HEK293 cells stably expressing mTAAR1): 100% | EC50 (Mouse TAAR 1 [2]): 1370 ± 330 nM
